Measured values as given in patent US20040086901A1, “Database for analyzing gene function and method of analyzing gene function by dspa” (priority 2000, published 2004).

Legend:
Format in all cases: cell-based, mouse
[1] = tested on: NIH3T3 cells overexpressing coup; assay: MTT cell viability, coup overexpressing cells vs parental line; details: coup high-expressing cells / parental cell line, 3 to 4 days
How it was run: (§1)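 Stable NIH3T3 transfectants (cDNA in pRc-CMV-type vector, G-418-selected, high expressers picked by Western blot) and parental cells were seeded at 1×10^5 cells/ml into twofold serial drug dilutions and grown 3–4 days. MTT formazan was read at 574/655 nm, and log ratios of IC40 values were derived.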

[2] = tested on: NIH3T3 cells overexpressing HNF4; assay: MTT cell viability, HNF4 overexpressing cells vs parental line; details: HNF4 high-expressing cells / parental cell line, 3 to 4 days
How it was run: (§2)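 Drugs were serially diluted twofold across nine wells. Cells were then added from a suspension of 1×10^5 cells/ml and cultured for 3 to 4 days. After a 4 h MTT incubation at 37 °C and acid-isopropanol solubilisation, formazan was measured at 574 nm and IC40 ratios were derived.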

[3] = tested on: NIH3T3 cells overexpressing RhoA; assay: MTT cell viability, RhoA overexpressing cells vs parental line; details: RhoA high-expressing cells / parental cell line, 3 to 4 days
How it was run: as §1

[4] = tested on: NIH3T3 cells overexpressing erbB2; assay: MTT cell viability, erbB2 overexpressing cells vs parental line; details: erbB2 high-expressing cells / parental cell line, 3 to 4 days
How it was run: as §1

[5] = tested on: NIH3T3 cells overexpressing caspase-2; assay: MTT cell viability, caspase-2 overexpressing cells vs parental line; details: caspase-2 high-expressing cells / parental cell line, 3 to 4 days
How it was run: as §1

[6] = tested on: NIH3T3 cells overexpressing cAMP-PK-CS; assay: MTT cell viability, cAMP-PK-CS overexpressing cells vs parental line; details: cAMP-PK-CS high-expressing cells / parental cell line, 3 to 4 days
How it was run: as §2

[7] = tested on: NIH3T3 cells overexpressing p53(wt); assay: MTT cell viability, p53(wt) overexpressing cells vs parental line; details: p53(wt) high-expressing cells / parental cell line, 3 to 4 days
How it was run: as §2

[8] = tested on: NIH3T3 cells overexpressing TK; assay: MTT cell viability, TK overexpressing cells vs parental line; details: TK high-expressing cells / parental cell line, 3 to 4 days
How it was run: as §1

[9] = tested on: NIH3T3 cells overexpressing v-src; assay: MTT cell viability, v-src overexpressing cells vs parental line; details: v-src high-expressing cells / parental cell line, 3 to 4 days
How it was run: as §1

[10] = tested on: NIH3T3 cells overexpressing T.Tn; assay: MTT cell viability, T.Tn overexpressing cells vs parental line; details: T.Tn high-expressing cells / parental cell line, 3 to 4 days
How it was run: as §2

[11] = tested on: NIH3T3 cells overexpressing PKCepsilon-KN; assay: MTT cell viability, PKCepsilon-KN overexpressing cells vs parental line; details: 3 to 4 days
How it was run: as §2

[12] = tested on: NIH3T3 cells overexpressing caspase-1; assay: MTT cell viability, caspase-1 overexpressing cells vs parental line; details: caspase-1 high-expressing cells / parental cell line, 3 to 4 days
How it was run: as §2

[13] = tested on: NIH3T3 cells overexpressing Bax; assay: MTT cell viability, Bax overexpressing cells vs parental line; details: 3 to 4 days
How it was run: as §2

[14] = tested on: NIH3T3 cells overexpressing p33/ING1; assay: MTT cell viability, p33/ING1 overexpressing cells vs parental line; details: p33/ING1 high-expressing cells / parental cell line, 3 to 4 days
How it was run: as §1

[15] = tested on: NIH3T3 cells overexpressing PDGF-R; assay: MTT cell viability, PDGF-R overexpressing cells vs parental line; details: PDGF-R high-expressing cells / parental cell line, 3 to 4 days
How it was run: as §1

[16] = tested on: NIH3T3 cells overexpressing CaMKIIa; assay: MTT cell viability, CaMKIIa overexpressing cells vs parental line; details: CaMKIIa high-expressing cells / parental cell line, 3 to 4 days
How it was run: as §2

[17] = tested on: NIH3T3 cells overexpressing Regucalcin; assay: MTT cell viability, Regucalcin overexpressing cells vs parental line; details: Regucalcin high-expressing cells / parental cell line, 3 to 4 days
How it was run: as §1

[18] = tested on: NIH3T3 cells overexpressing cystatin alpha; assay: MTT cell viability, cystatin alpha overexpressing cells vs parental line; details: cystatin alpha high-expressing cells / parental cell line, 3 to 4 days
How it was run: as §1

[19] = tested on: NIH3T3 cells overexpressing Cip-1; assay: MTT cell viability, Cip-1 overexpressing cells vs parental line; details: Cip-1 high-expressing cells / parental cell line, 3 to 4 days
How it was run: as §2

[20] = PKCepsilon-KN (first of two lines) high-expressing cells / parental cell line
[21] = PKCepsilon-KN (second of two lines) high-expressing cells / parental cell line
[22] = Bax (first of two Bax lines) high-expressing cells / parental cell line
[23] = Bax (second of two Bax lines) high-expressing cells / parental cell line

SMILES | logarithmic value of ratio of IC40 values [1] | logarithmic value of ratio of IC40 values [2] | logarithmic value of ratio of IC40 values [3] | logarithmic value of ratio of IC40 values [4] | logarithmic value of ratio of IC40 values [5] | logarithmic value of ratio of IC40 values [6] | logarithmic value of ratio of IC40 values [7] | logarithmic value of ratio of IC40 values [8] | logarithmic value of ratio of IC40 values [9] | logarithmic value of ratio of IC40 values [10] | logarithmic value of ratio of IC40 values [11, 20] | logarithmic value of ratio of IC40 values [11, 21] | logarithmic value of ratio of IC40 values [12] | logarithmic value of ratio of IC40 values [13, 22] | logarithmic value of ratio of IC40 values [13, 23] | logarithmic value of ratio of IC40 values [14] | logarithmic value of ratio of IC40 values [15] | logarithmic value of ratio of IC40 values [16] | logarithmic value of ratio of IC40 values [17] | logarithmic value of ratio of IC40 values [18] | further results
C=C[C@]1(C)CC[C@@H](C(=C)C)C[C@H]1C(=C)C [b-elemene, β-elemene] | 0.52 | 0.33 | 0.00 | −0.46 | 0.26 | −0.10 | 0.00 | −0.14 | −0.35 | −0.14 | 0.00 | −0.23 | 0.11 | 0.14 | 0.00 | −0.14 | 0.00 | 0.16 | −0.09 | 0.08 | logarithmic value of ratio of IC40 values [19]: 0.00
CCCC[C@@H](C)/C=C(C)/C=C(\C)C(=O)NC1=C[C@@](O)(/C=C/C=C/C=C/C(=O)NC2=C(O)CCC2=O)[C@@H]2O[C@@H]2C1=O [Manumycin, manumycin] | 0.09 | 0.00 | −0.04 | −0.05 | 0.08 | 0.08 | 0.12 | 0.00 | 0.00 | 0.28 | −0.11 | 0.16 | −0.06 | −0.07 | 0.06 | 0.18 | 0.17 | 0.00 | 0.04 | −0.19 | logarithmic value of ratio of IC40 values [19]: 0.12
CN(C)CCCn1cc(C2=C(c3c[nH]c4ccccc34)C(=O)NC2=O)c2ccccc21 [GF109203X] | 0.46 | 0.40 | 0.24 | −0.40 | 0.92 | 0.27 | 0.62 | 0.00 | −0.29 | −0.10 | −0.17 | 0.32 | 0.23 | 0.22 | 0.27 | −0.28 | 0.00 | 0.04 | −0.05 | 0.60 | logarithmic value of ratio of IC40 values [19]: 0.30
COc1ccc2c(c1)CC[C@@H]1[C@@H]2CC[C@]2(C)[C@@H](NCCCCCCN3C(=O)C=CC3=O)CC[C@@H]12 [U73122] | 0.00 | 0.00 | 0.12 | −0.96 | −0.02 | −0.18 | 0.11 | 0.00 | −0.59 | −0.26 | −0.21 | −0.38 | 0.53 | 0.00 | 0.00 | 0.28 | −0.11 | −0.05 | −0.66 | 0.04 | logarithmic value of ratio of IC40 values [19]: 0.08
O=[As]O [NaAsO2, sodium arsenite] | −0.19 | 0.00 | 0.07 | −0.15 | 0.18 | 0.07 | 0.20 | 0.18 | 0.11 | −0.05 | −0.07 | 0.35 | −0.21 | −0.10 | 0.34 | −0.07 | 0.14 | 0.00 | 0.03 | −0.05 | logarithmic value of ratio of IC40 values [19]: 0.30
CNc1ccc2oc(C[C@H]3O[C@@]4(CC[C@H]3C)O[C@H]([C@H](C)C(=O)c3ccc[nH]3)[C@H](C)C[C@H]4C)nc2c1C(=O)O [A23187] | −0.12 | 0.19 | 0.26 | −0.07 | 0.48 | −0.08 | 0.30 | 0.00 | −0.19 | −0.22 | −0.28 | 0.15 | −0.22 | 0.00 | −0.09 | 0.26 | 0.31 | 0.00 | 0.03 | 0.26 | logarithmic value of ratio of IC40 values [19]: 0.04
